# Test results published in US20220401440A1, “DOSING REGIMENS FOR A PROTEIN KINASE C INHIBITOR” (IDEAYA BIOSCIENCES, INC., priority 2019, published 2022).
# Values joined by “and” are separate entries in the source; they are usually repeats but may differ in a detail not shown here. Identical values can stand only once. Like-named read-outs stand apart in the source and are kept apart here.
# Columns and labels:
# [1] = test system: metastatic uveal melanoma (MUM); details: cited from earlier work
# [2] = Hypotension studies: adverse events, single agent Compound (I) BID schedule (Table 5); type: in vivo, human
# [3] = Phase 1/2 study: plasma pharmacokinetics of Compound (I) in patients (LC-MS/MS, non-compartmental analysis); type: in vivo, human; details: for Race: mean ± SD
# Protocol: The following example presents a phase 1/2 study of Compound (I) in patients with solid tumors harboring GNAQ/11 mutations or PRKC fusions.
# Patients with MUM were sequentially enrolled into Cohort 1 or Cohort 2. Enrollment into Cohort 2 was not initiated until enrollment into Cohort 1 was completed and the dose considered safe. • a. Cohort 1. 6 patients were sequentially enrolled and received 300 mg twice a day (BID), daily, for 28-day treatment cycles. • b. Cohort 2. 6 patients were sequentially enrolled and received 400 mg BID, preceded by an initial 7-day 200 mg BID run-in period, for 28-day treatment cycles. All patients continue to receive treatment with Compound (I) unless the subject experiences one or more of the following: • Adverse event • Lost to follow-up • Physician decision • Progressive disease • Study termination by the Sponsor • Patient/guardian decision • Protocol deviation • Non-compliance with protocol • Death • Pregnancy NUMBER OF SUBJECTS: 12 patients
# The following example presents pharmacokinetic results from the study as described in Example 1.
# Blood samples were collected on Cycle 1 Day 1 and Day 15 from patients who were administered 300 mg BID of Compound (I), and on Cycle 1 Day 8 and Day 22 from patients who were administered 200 mg BID for 7 days followed by 400 mg BID of Compound (I) for the remainder of the treatment cycle. The plasma samples were processed by protein precipitation (see Ahuja S and Dong M. W, Handbook of Pharmaceutical Analysis by HPLC, Elsevier Inc., Chapter 17, page 433, 2005) and analyzed using an LC-MS/MS method; Quantification was achieved using Compound (I) peak area to internal standard (3-amino-N-(3-(4-amino-4-(methyl-d3)piperidin-1-yl)pyridin-2-yl)-6-(3-(trifluoromethyl)pyridin-2-yl)pyrazine-2-carboxamide) peak area ratios. Concentrations of the calibration curve standards, quality control samples, and patient samples were determined by the method of 1/x^2 weighted least squares linear regression.
# The Pharmacokinetic parameters were calculated using Phoenix WinNonlin software (non-compartmental analysis).
# [4] = cohort that received BID dosing of 200 to 400 mg
# [5] = 300 mg BID, N = 18, regardless of study drug relationship
# [6] = 400 mg, N = 6, regardless of study drug relationship
# [7] = All BID Patients, N = 30, regardless of study drug relationship
# [8] = individual patients, 300 mg BID
# [9] = individual patients, 300 mg BID, C1 Day 1
compound,measurement,setting,value
"CC1(N)CCN(c2cccnc2NC(=O)c2nc(-c3ncccc3C(F)(F)F)cnc2N)CC1 [Compound (I), 3-amino-N-(3-(4-amino-4-methylpiperidin-1-yl)pyridin-2-yl)-6-(3-(trifluoromethyl)pyridin-2-yl)pyrazine-2-carboxamide]",confirmed partial responses (PRs),"[1]; 68 patients, QD and BID, as of September 2018, preliminary",six
same,unconfirmed PRs,"[1]; 68 patients, as of September 2018, preliminary",two
same,confirmed PRs,[1]; [4],Four
same,patients with SD as best response (2 being unconfirmed PRs),[1]; [4],18
same,"Hypotension, all grades",[2]; [5],3 (16.7)
same,"Hypotension, grade >3",[2]; [5],0
same,"Hypotension, all grades",[2]; [6],4 (66.7)
same,"Hypotension, grade >3",[2]; [6],1 (16.7)
same,"Hypotension, all grades",[2]; [7],7 (23.3)
same,"Hypotension, grade >3",[2]; [7],1 (3.3)
same,Free AUC0-12 (mean free plasma),[3]; 300 mg BID,260 ± 95 ng·h/mL
same,Cmin,"[3]; 300 mg BID, Cycle 1 Day 15, mean ± SD, n = 12",790 ± 345 ng/mL
same,Race,"[3]; 300 mg BID, n = 12",0.74 ± 0.31
same,Free AUC0-12 (mean free plasma),[3]; 400 mg BID with 200 mg run-in,396 ± 222 ng·h/mL
same,Cmin,"[3]; 400 mg BID with 200 mg run-in, Cycle 1 Day 22, mean ± SD, n = 24",1120 ± 806 ng/mL
same,Race,"[3]; 400 mg BID with 200 mg run-in, n = 24",0.97 ± 0.29
same,mean exposure on C1D8 (200 mg BID 7 days then 400 mg BID) compared to C1D1 of 300 mg BID,"[3]; human, in vivo",lower mean exposure
same,"mean free plasma AUC0-12, higher at 400 mg BID with 200 mg run-in than at 300 mg BID","[3]; human, in vivo",about 44%
same,AUC(0-t),"[3]; human, plasma, oral, 300 mg, 300 mg BID, Cycle 1 Day 1, mean ± SD, n = 12, read-out: AUC0-12",26200 ± 11100 ng·h/mL
same,Cmax,"[3]; human, plasma, oral, 300 mg, 300 mg BID, Cycle 1 Day 1, mean ± SD, n = 12, read-out: Cmax",4600 ± 2300 ng/mL
same,AUC(0-t),"[3]; human, plasma, oral, 300 mg, 300 mg BID, Cycle 1 Day 15, mean ± SD, n = 12, read-out: AUC0-12",16800 ± 5380 ng·h/mL
same,Cmax,"[3]; human, plasma, oral, 300 mg, 300 mg BID, Cycle 1 Day 15, mean ± SD, n = 12, read-out: Cmax",2860 ± 690 ng/mL
same,AUC(0-t),"[3]; human, plasma, oral, 300 mg, individual patient 10001-00022, 300 mg BID, C1 Day 1 (footnote a: AUC0-8), read-out: AUC0-8",35900 ng·h/mL
same,AUC(0-t),"[3]; human, plasma, oral, 400 mg BID, 400 mg BID with 200 mg run-in, Cycle 1 Day 8, mean ± SD, n = 24, read-out: AUC0-12",24400 ± 12100 ng·h/mL
same,Cmax,"[3]; human, plasma, oral, 400 mg BID, 400 mg BID with 200 mg run-in, Cycle 1 Day 8, mean ± SD, n = 24, read-out: Cmax",3930 ± 1880 ng/mL
same,AUC(0-t),"[3]; human, plasma, oral, 400 mg BID, 400 mg BID with 200 mg run-in, Cycle 1 Day 22, mean ± SD, n = 24, read-out: AUC0-12",21500 ± 10800 ng·h/mL
same,Cmax,"[3]; human, plasma, oral, 400 mg BID, 400 mg BID with 200 mg run-in, Cycle 1 Day 22, mean ± SD, n = 24, read-out: Cmax",3580 ± 1390 ng/mL
same,AUC ratio D15/D1,[3]; [8],0.83 and 0.87 and 1.53 and 0.67 and 1.1 and 0.66 (2×) and 0.44 and 0.51 and 0.41 and 0.62 and 1.22 and 0.61
same,Cmin on C1D15,[3]; [8],645 ng/mL and 626 ng/mL and 175 ng/mL and 792 ng/mL and 1075 ng/mL and 1212 ng/mL and 1088 ng/mL and 798 ng/mL and 322 ng/mL and 1337 ng/mL and 1549 ng/mL and 715 ng/mL and 699 ng/mL
same,AUC0-12,[3]; [9],22974 ng·h/mL and 17983 ng·h/mL and 3597 ng·h/mL and 22480 ng·h/mL and 19439 ng·h/mL and 43190 ng·h/mL and 35321 ng·h/mL and 26969 ng·h/mL and 39949 ng·h/mL and 233274 ng·h/mL and 26345 ng·h/mL and 19768 ng·h/mL
same,Cmax,[3]; [9],3159 ng/mL and 2980 ng/mL and 607 ng/mL and 3147 ng/mL and 4367 ng/mL and 8940 ng/mL and 7009 ng/mL and 5386 ng/mL and 6252 ng/mL and 5549 ng/mL and 3866 ng/mL and 5523 ng/mL and 2256 ng/mL
same,Tmax,[3]; [9],4 h and 2 h and 1 h and 0.5 h
